Blank lines part the entries; values can stand above or below the molecule they belong to.
Key:
[1] = In vitro cytotoxicity by MTT assay, HEK 293; type: cell-based, human; conditions: human, HEK 293 cells, read-out: % cytotoxicity (100 − % cell survival) of HEK 293 cell line
Method in brief: (§1)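 After 72 h of compound exposure at 37 °C in 5 % CO2, MTT was added for 4 h and the propanol-solubilised formazan was read at 490 nm. Monolayers (~10,000 cells/well, RPMI-1640 plus 10 % newborn calf serum) had been allowed to form for 24 h beforehand.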

[2] = tested on: BT474 (breast cancer cell line); experiment: In vitro cytotoxicity by MTT assay, BT474; type: cell-based; conditions: Homo sapiens, 72 h, read-out: % cytotoxicity (100 − % cell survival) of BT474 cell line
Method in brief: as §1

[3] = In vitro cytotoxicity by MTT assay, NCI-H226; type: cell-based; conditions: human, NCI-H226 lung cancer cells, 0.015 μM, read-out: % Cytotoxicity (100 − % cell survival) of NCI-H226 cell line
Method in brief: as §1

[4] = tested on: NCI-H226 (lung cancer cell line); experiment: In vitro cytotoxicity by MTT assay, NCI-H226; type: cell-based; conditions: Homo sapiens, 72 h, read-out: % Cytotoxicity (100 − % cell survival) of NCI-H226 cell line
Method in brief: as §1

[5] = tested on: HEK 293, M468 and NCI-H226; experiment: In vitro cytotoxicity by MTT assay, summary over all cell lines; type: cell-based; conditions: on all cell lines
Description: The cancer cell line cultures of HEK 293 ([…]), BT474 (breast cancer cell line) and NCI-H226 (lung cancer) were obtained from Pasteur Institute of India, Coonoor, India, and were cultured in RPMI-1640 and 10 % heat-[…] New born calf serum with antibiotics [penicillin ([…]), streptomycin (100 μg/mL) and amphotericin B (25 μg/mL)]. The cells were maintained at 37 °C in a humidified atmosphere with 5 % CO2 and were subcultured twice a week.
The monolayer cell culture (100 μL) was trypsinized, and the cell count was adjusted to […] using medium containing 10 % new born calf serum. To each well of the 96-well microtitre plate, the diluted cell suspension (approximately 10,000 cells) (0.1 mL) was added and kept for 24 h in incubator at 37 °C in 5 % CO2 atmosphere for cell monolayer formation. After 24 h, when a partial monolayer was formed at the bottom of the well, the supernatant was flicked off, the monolayer was washed once, and different drugs, i.e. synthesized compounds (100 μL), were added to the cells in microtitre plates. The plates were then incubated at 37 °C for 3 days in 5 % CO2 atmosphere, and microscopic examination was carried out and observations recorded every 24 h. After 72 h, the sample solution in the wells was flicked off; MTT dye ([…]) was added to each well; plates were gently shaken and incubated for 4 h at 37 °C in 5 % CO2 incubator. The supernatant was removed and propanol (50 μL) was added; the plates were gently shaken to solubilize the formed formazan. The absorbance was measured using a microplate reader at a wavelength of 490 nm (Edmondson et al., [1988]; Prasad et al., [2005]; Chiruvella et al., [2008]; Chang et al., [2007]).

[6] = Lipid peroxidation inhibitory activity (egg lecithin liposomes, TBA); type: biochemical; conditions: Conc. ± SD; standard ascorbic acid; read-out: IC50 inhibitory concentration, Lipid peroxidation
Description: Egg lecithin (3 mg/mL phosphate buffer, pH 7.4) was sonicated in an ultrasonic sonicator for 10 min to ensure proper liposome formation. Test samples or standard, ascorbic acid (100 μL) of different concentrations (10, 20, 30, 40 50 and 100 μg/mL) was added to liposome mixture (1 mL); the control was without test sample. Lipid peroxidation was induced by adding ferric chloride (10 μL, 400 mM) and L-ascorbic acid (10 μL, 200 mM). After incubation for 1 h at 37 °C, the reaction was stopped by adding hydrochloric acid (2 mL, 0.25 N) containing trichloroacetic acid (150 mg/mL), thiobarbituric acid (3.75 mg/mL) and butylated hydroxy anisole (0.50 mg/mL). The reaction mixture was subsequently boiled for 15 min, cooled and centrifuged at 1,000 rpm for 15 min, and the absorbance of the supernatant was measured at 532 nm (Duh and Yen, [1997]). The % inhibition at different concentrations was calculated by the following formula %Inhibition=[1-(Vt/Vc)]×100 where V t = mean absorption of test compound, V c = mean absorption of control.
The IC50 (nM/mL) value was derived from the % inhibition at different concentrations.

[7] = DPPH radical scavenging activity; type: biochemical; conditions: Conc. ± SD; standard ascorbic acid; read-out: IC50 inhibitory concentration, DPPH radical
Description: Compounds of SC series were evaluated for their in vitro free radical scavenging activities by 2,2-diphenyl-1-picrylhydrazyl (DPPH) assay method (Blois, [1958]; Shishoo et al., [1999]; Chhajed et al., [2007]). To determine the free radical scavenging activity, a method based on the reduction of a methanolic solution of the coloured DPPH radical was used. To a set of test tubes containing methanol (3 mL), DPPH reagent (2 mg/mL) (50 μL) was added. The initial absorbance was measured. To these test tubes, methanolic solution of different test solutions (1 mg/mL) were added (10–50 μL). Ascorbic acid (0.5 mg/mL) was also added in the concentration of 10, 20, 30, 40, 50 and 100 μL. After 20 min, absorbance was recorded at 516 nm. The experiment was performed in triplicate. The percentage reduction in absorbance was calculated from the initial and final absorbance of each solution (Dhar and Taploo, [1982]).

[8] = Superoxide anion radical scavenging (NBT/NADH/PMS); type: biochemical; conditions: Conc. ± SD; standard catechin; read-out: IC50 inhibitory concentration, Superoxide anion
Description: Measurement of superoxide anion scavenging activity of the synthesized compound was taken based on the method described by Nishimiki et al. ([1972]) and slightly modified. […] The reaction mixture was incubated at 25 °C for 5 min, and the absorbance at 560 nm was measured against blank samples. Catechin was used as reference compound. All the experiments were performed in triplicate, and the results were averaged. The percentage of inhibition was determined by comparing the results of control and test samples. The IC50 (nM/mL) value are depicted in Table 1.

[9] = Total antioxidant activity (ABTS radical cation scavenging); type: biochemical; conditions: Conc. ± SD; three independent experiments in duplicate; standard trolox; read-out: IC50 inhibitory concentration, ABTS^+ radical
Description: The ability of the test sample to scavenge 2,2′-azinobis-(3-ethylbenzothiazoline-6-sulphonic acid) (ABTS^·+) radical cation was compared with 6-hydroxy-2,5,7,8-tetramethylchroman-2-carboxylic acid (trolox) standard (Chang et al., [2007]; Erel, [2004]; Re et al., [1999]). The ABTS^·+ radical cation was pregenerated by mixing ABTS stock solution (7 mM) with potassium persulphate (2.45 mM) (final concentration) and incubating for 12–16 h in the dark at room temperature until the reaction was complete and the absorbance was stable. The absorbance of the ABTS^·+ solution was equilibrated to 0.70 (±0.02) by diluting with water at room temperature, then 1 mL of solution was mixed with 10 μL of the test sample (0.05–10 mg/mL), and the absorbance was measured at 734 nm after 6 min. All experiments were repeated three times. The percentage inhibition of absorbance was calculated and plotted as a function of the concentration of standard and sample to determine the trolox equivalent antioxidant concentration (TEAC). To calculate the TEAC, the gradient of the plot for the sample was divided by the gradient of the plot for trolox. The IC50 inhibitory concentration (nM/mL) values of tested compounds are depicted in Table 1. The ABTS^·+ radical scavenging activity of the samples was expressed as S%=[(Acontrol-Asample)/Acontrol]×100 where A control is the absorbance of the blank control (ABTS^·+ solution without test sample), and A sample is the absorbance of the test sample.

melting point: 261 to 263 °C
Compound: O=C(NS(=O)(=O)c1nnc(N=Cc2ccco2)s1)c1ccccc1 [Compound 9j, N-({5-[(Furan-2-ylmethylidene)amino]-1,3,4-thiadiazol-2-yl}sulfonyl)benzamide]
cytotoxicity at 72 h, 0.005 µM ([1]; 0.005 μM): 31.4%
cytotoxicity at 72 h, 0.015 µM ([1]; 0.015 μM): 32.8%
cytotoxicity at 72 h, 0.045 µM ([1]; 0.045 μM): 33.7%
cytotoxicity at 72 h, 0.13 µM ([1]; 0.13 μM): 34.3%
cytotoxicity at 72 h, 0.41 µM ([1]; 0.41 μM): 34.5%
cytotoxicity at 72 h, 1.23 µM ([1]; 1.23 μM): 35%
cytotoxicity at 72 h, 3.7 µM ([1]; 3.7 μM): 35.3%
cytotoxicity at 72 h, 11.11 µM ([1]; 11.11 μM): 36.1%
cytotoxicity at 72 h, 33.33 µM ([1]; 33.33 μM): 36.9%
cytotoxicity at 72 h, 100 µM ([1]; 100 μM): 38.9%
cytotoxicity at 0.005 µM ([2]; BT-474, 0.005 μM): 30.4%
cytotoxicity at 0.015 µM ([2]; BT-474, 0.015 μM): 34.6%
cytotoxicity at 0.045 µM ([2]; BT-474, 0.045 μM): 37.4%
cytotoxicity at 0.13 µM ([2]; BT-474, 0.13 μM): 40.1%
cytotoxicity at 0.41 µM ([2]; BT-474, 0.41 μM): 43.6%
cytotoxicity at 1.23 µM ([2]; BT-474, 1.23 μM): 45.1%
cytotoxicity at 3.7 µM ([2]; BT-474, 3.7 μM): 49.3%
cytotoxicity at 11.11 µM ([2]; BT-474, 11.11 μM): 52.1%
cytotoxicity at 33.33 µM ([2]; BT-474, 33.33 μM): 56.9%
cytotoxicity at 100 µM ([2]; BT-474, 100 μM): 61.4%
cytotoxicity at 72 h, 0.015 µM [3]: 33.2%
cytotoxicity at 0.005 µM ([4]; NCI-H226, 0.005 μM): 33%
cytotoxicity at 0.045 µM ([4]; NCI-H226, 0.045 μM): 34.6%
cytotoxicity at 0.13 µM ([4]; NCI-H226, 0.13 μM): 35.3%
cytotoxicity at 0.41 µM ([4]; NCI-H226, 0.41 μM): 36.1%
cytotoxicity at 1.23 µM ([4]; NCI-H226, 1.23 μM): 37%
cytotoxicity at 3.7 µM ([4]; NCI-H226, 3.7 μM): 39.1%
cytotoxicity at 11.11 µM ([4]; NCI-H226, 11.11 μM): 42.7%
cytotoxicity at 33.33 µM ([4]; NCI-H226, 33.33 μM): 45.4%
cytotoxicity at 100 µM ([4]; NCI-H226, 100 μM): 52.4%
cytotoxic activity compared with all synthesized compounds [5]: more potent

IC50 [6]: 150 ± 16.9 µM
IC50 [7]: 187 ± 35.4 µM
Compound: O=C1O[C@H]([C@@H](O)CO)C(O)=C1O [ascorbic acid, reference compound]

IC50 [8]: 171 ± 9.1 µM
Compound: Oc1cc(O)c2c(c1)O[C@H](c1ccc(O)c(O)c1)[C@@H](O)C2 [catechin, reference compound]

IC50 [9]: 84.5 ± 9.39 µM
Compound: Cc1c(C)c2c(c(C)c1O)CCC(C)(C(=O)O)O2 (stereo not drawn) [trolox, 6-hydroxy-2,5,7,8-tetramethylchroman-2-carboxylic acid, reference compound]
